{"source": "patent EP0951284B1", "about": "“[…] DERIVATIVES” (priority 1996, dated 1998)", "key": {"MAO-B [1]": {"molecular_target": "T1, MAO-B (Rattus norvegicus, UniProt P19643)", "T1 sequence (P19643 1-520)": "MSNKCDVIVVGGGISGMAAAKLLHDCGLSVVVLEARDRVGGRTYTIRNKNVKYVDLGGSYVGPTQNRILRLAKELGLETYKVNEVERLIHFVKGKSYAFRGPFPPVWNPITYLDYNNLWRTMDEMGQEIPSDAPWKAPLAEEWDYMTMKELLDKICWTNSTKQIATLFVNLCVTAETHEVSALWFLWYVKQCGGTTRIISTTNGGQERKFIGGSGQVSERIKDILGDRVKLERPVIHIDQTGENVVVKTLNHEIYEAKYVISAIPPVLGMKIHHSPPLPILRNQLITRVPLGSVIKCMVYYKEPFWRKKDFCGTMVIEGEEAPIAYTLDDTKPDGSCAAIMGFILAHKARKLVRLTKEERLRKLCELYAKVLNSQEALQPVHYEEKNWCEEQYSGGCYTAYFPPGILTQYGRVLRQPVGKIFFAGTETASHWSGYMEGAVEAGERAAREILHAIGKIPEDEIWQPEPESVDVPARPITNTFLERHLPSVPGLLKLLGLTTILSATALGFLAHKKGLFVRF", "assay": "Inhibition of MAO activity in vitro, rat brain homogenate, PEA substrate", "type": "biochemical", "design": "The MAO enzyme source was a homogenate of rat brain in 0.3M sucrose; from tissue; host or cells: rat brain homogenate (600G supernatant)", "conditions": "PEA 50µM", "procedure": "(§2) The MAO enzyme source was a homogenate of rat brain in 0.3M sucrose, which was centrifuged at 600G for 15 minutes. The supernatant was diluted appropriately in 0.05M phosphate buffer, and pre-incubated with serial dilutions of test compounds for 20 minutes at 37°C. ^14C-Labeled substrates (2-phenylethylamine, hereinafter PEA; 5-hydroxytryptamine, hereinafter 5-HT) were then added, and the incubation continued for a further 20 minutes (PEA), or 30-45 minutes (5-HT). Substrate concentrations used were 50µM (PEA) and 1mM (5-HT). In the case of PEA, enzyme concentration was chosen so that not more than 10% of the substrate was metabolized during the course of the reaction. The deaminated products were extracted into toluene-ethyl acetate (1:1, v/v) containing 0.6% (w/v) 2,5-diphenyloxazole prior to determination by liquid scintillation counting. Radioactivity in the eluate indicates the production of neutral and acidic metabolites formed as a result of MAO activity. Activity of MAO in the sample was expressed as a percentage of control activity in the absence of inhibitors after subtraction of appropriate blank values The activity determined using PEA as substrate is referred to as MAO-B, and that determined using 5-HT as MAO-A."}, "[2]": {"assay": "Acute toxicity in mice (sub-cutaneous, lethality within 6 hours)", "conditions": "mouse, in vivo, sc; for selectivity ratio: LD50 divided by ED50 (acetylcholine esterase ex vivo), read-out: Therapeutic Ratio (LD/AC); for LD50 at 6 h: sub-cutaneous, mice, within 6 hours", "description": "Drugs were administered sub-cutaneously in at least 3 doses, to a minimum of 10 mice per dose. […] Therapeutic Ratio was calculated as LD50 divided by ED50(acetylcholine esterase ex vivo)."}, "MAO-B [3]": {"test_system": "MAO-B", "assay": "Inhibition of MAO activity ex vivo (brain tissue), PEA substrate", "type": "in vivo, mice", "conditions": "mouse brain tissue", "description": "(§1) Male Sabra mice, weighing 45-50g were injected with test compound solutions (prepared in 0.9% saline). Each dose was administered to two or three mice. The mice were sacrificed two hours after drug administration or at a time corresponding to the peak AChE inhibition time (see Table 6). The brain and liver were rapidly dissected and stored in appropriate vials on ice. The tissues were weighed, diluted to 1/20 in sucrose 0.3M and stored at -20°C before performance of the MAO assay described above. The results given in Table 6 relate to measurements made on brain tissue only."}, "MAO-A [4]": {"molecular_target": "T2, MAO-A (Rattus norvegicus, UniProt P21396)", "T2 sequence (P21396 1-526)": "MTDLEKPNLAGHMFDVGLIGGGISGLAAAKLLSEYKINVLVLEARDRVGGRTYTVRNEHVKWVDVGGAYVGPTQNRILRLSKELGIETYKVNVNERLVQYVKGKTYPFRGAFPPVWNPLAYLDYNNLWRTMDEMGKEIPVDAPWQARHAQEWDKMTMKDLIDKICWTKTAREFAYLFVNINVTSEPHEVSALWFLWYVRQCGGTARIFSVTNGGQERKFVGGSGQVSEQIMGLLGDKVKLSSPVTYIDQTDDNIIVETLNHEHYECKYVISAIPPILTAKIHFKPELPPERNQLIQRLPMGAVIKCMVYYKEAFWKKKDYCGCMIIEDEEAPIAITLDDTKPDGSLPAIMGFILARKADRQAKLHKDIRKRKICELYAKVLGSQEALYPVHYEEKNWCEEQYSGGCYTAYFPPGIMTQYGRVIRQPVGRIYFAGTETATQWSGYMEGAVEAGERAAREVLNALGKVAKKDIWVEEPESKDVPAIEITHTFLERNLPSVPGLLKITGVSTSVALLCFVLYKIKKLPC", "assay": "Inhibition of MAO activity in vitro, rat brain homogenate, 5-HT substrate", "procedure": "as §2"}, "whole brain AChE": {"molecular_target": "T3, whole brain AChE (Mus musculus, UniProt P21836)", "T3 construct": "the brains rapidly removed (minus cerebellum), weighed and homogenized in 0.1M phosphate buffer pH 8.0; from tissue; host or cells: mouse brain (minus cerebellum) homogenate supernatant", "T3 sequence (P21836 32-614)": "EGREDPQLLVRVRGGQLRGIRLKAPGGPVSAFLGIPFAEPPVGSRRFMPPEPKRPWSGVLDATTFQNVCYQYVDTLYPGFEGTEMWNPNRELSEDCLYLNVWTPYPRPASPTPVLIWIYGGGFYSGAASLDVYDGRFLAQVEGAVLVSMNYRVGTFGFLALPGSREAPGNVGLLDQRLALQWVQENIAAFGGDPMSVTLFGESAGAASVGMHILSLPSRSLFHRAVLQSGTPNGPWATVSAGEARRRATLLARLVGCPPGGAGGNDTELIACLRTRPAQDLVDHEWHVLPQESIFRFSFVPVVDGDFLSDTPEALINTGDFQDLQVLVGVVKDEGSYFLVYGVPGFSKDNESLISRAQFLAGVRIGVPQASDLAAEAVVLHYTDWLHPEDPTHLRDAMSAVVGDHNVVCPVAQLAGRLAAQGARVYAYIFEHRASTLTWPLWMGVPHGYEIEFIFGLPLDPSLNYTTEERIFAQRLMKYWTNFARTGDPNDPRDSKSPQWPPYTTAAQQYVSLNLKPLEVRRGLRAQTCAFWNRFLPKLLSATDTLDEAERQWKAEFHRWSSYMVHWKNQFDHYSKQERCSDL", "assay": "Ex vivo measurement of brain AChE inhibition after sub-cutaneous administration", "type": "in vivo, mice", "conditions": "for ED50: sc, sub-cutaneous, mouse whole brain, at peak of activity, read-out: AChE Inhibition Ex vivo ED50 (AC)", "description": "Test drugs or saline were administered sub-cutaneously to male mice (Sabra strain, 28-35g). At least 4-5 mice were used per dose and a minimum of 3 doses per drug were tested. The mice were sacrificed 15, 30, 60, 70, 90, 120 or 180 minutes after drug administration, the brains rapidly removed (minus cerebellum), weighed and homogenized in 0.1M phosphate buffer pH 8.0, containing Triton (1mg/100g tissue) and centrifuged to remove cell debris. Aliquots (25 µl) of the supernatant were then incubated with acetylthiocholine and DTNB. AChE activity measured as described above. The % inhibition of whole brain AChE by each dose of drug was calculated by comparison with enzyme activity from 3 saline treated control mice run at the same time."}, "MAO-A [5]": {"test_system": "MAO-A", "assay": "Inhibition of MAO activity ex vivo (brain tissue), 5-HT substrate", "type": "in vivo, mice", "conditions": "mouse brain tissue", "description": "as §1"}, "[6]": {"molecular_target": "T4, Human erythrocyte acetylcholinesterase (Homo sapiens, UniProt P22303)", "T4 construct": "Human erythrocyte acetylcholinesterase (type XIII, Sigma Israel); purchased Sigma Israel type XIII; host or cells: human erythrocytes", "T4 sequence (P22303 32-617 isoform P22303-2 limits assumed)": "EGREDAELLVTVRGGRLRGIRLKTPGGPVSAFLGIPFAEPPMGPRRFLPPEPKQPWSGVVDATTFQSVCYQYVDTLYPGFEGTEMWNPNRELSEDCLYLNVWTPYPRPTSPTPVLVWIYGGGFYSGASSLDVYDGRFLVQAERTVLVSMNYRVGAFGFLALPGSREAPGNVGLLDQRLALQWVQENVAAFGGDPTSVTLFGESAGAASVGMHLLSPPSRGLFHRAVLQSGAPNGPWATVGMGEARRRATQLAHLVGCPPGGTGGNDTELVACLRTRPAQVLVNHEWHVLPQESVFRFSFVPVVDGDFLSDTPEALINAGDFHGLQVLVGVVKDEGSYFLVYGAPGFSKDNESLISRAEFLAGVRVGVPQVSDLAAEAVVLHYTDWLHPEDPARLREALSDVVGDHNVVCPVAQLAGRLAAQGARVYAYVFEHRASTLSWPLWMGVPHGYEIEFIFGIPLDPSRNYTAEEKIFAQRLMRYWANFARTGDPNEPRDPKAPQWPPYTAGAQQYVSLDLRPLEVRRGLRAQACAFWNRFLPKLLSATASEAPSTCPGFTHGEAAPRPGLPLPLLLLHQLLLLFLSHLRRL", "assay": "In vitro measurement of acetylcholinesterase (AChE) inhibition (Ellman method)", "type": "biochemical", "conditions": "at time of peak activity, incubation 15 to 60 minutes at 37°C", "description": "Human erythrocyte acetylcholinesterase (type XIII, Sigma Israel), was prepared in a stock solution of 1U/ml, containing Triton (1%) and bovine serum albumin (0.05%) in phosphate buffer (pH 8). The enzyme (0.05U) was incubated with 3-5 different concentrations of test compound (in triplicate) for periods of from 15 to 60 minutes at 37°C. […] The percentage inhibition of AChE by each concentration of drug is calculated by comparison with that of enzyme in the absence of drug."}, "[7]": {"conditions": "read-out: MAO-A Inhibition In vitro IC50, rat brain homogenate, 5-HT 1mM"}}, "note": "Where a name gives a salt, the structure may show the parent alone. Read-outs that look alike come from different tables or passages of the source."}
{"smiles": "C#CCN(C)C(C)Cc1cccc(OC(=O)N(C)C)c1", "note": "(racemic) [Compound 20, (rac)-3-(N,N-dimethyl-carbamyloxy) -α-methyl-N'-methyl,N'-propargyl phenethylamine HCl]", "values": [{"measurement": "IC50", "setting": "MAO-B [1]", "value": 400, "unit": "nM"}, {"measurement": "selectivity ratio", "setting": "[2]", "value": 11.3}, {"measurement": "LD50 at 6 h", "setting": "[2]", "value": 170, "unit": "µmol/kg"}, {"measurement": "MAO-B Inhibition Ex vivo ED50", "setting": "MAO-B [3]", "value": 7, "unit": "µmol/kg"}, {"measurement": "IC50", "setting": "MAO-A [4]", "value": 120, "unit": "nM"}, {"measurement": "ED50", "setting": "whole brain AChE", "value": 15, "unit": "µmol/kg"}, {"measurement": "MAO-A Inhibition Ex vivo ED50", "setting": "MAO-A [5]", "value": 6, "unit": "µmol/kg"}, {"measurement": "IC50", "setting": "[6]", "value": 1700, "unit": "nM"}]}
{"smiles": "C#CCNCCc1cccc(OC(=O)N(C)CC)c1", "note": "[Compound 13]", "values": [{"measurement": "IC50", "setting": "MAO-B [1]", "value": 8300, "unit": "nM"}, {"measurement": "selectivity ratio", "setting": "[2]", "value": 8.5}, {"measurement": "LD50 at 6 h", "setting": "[2]", "value": 458, "unit": "µmol/kg"}, {"measurement": "MAO-B Inhibition Ex vivo ED50", "setting": "MAO-B [3]", "value": 50, "unit": "µmol/kg"}, {"measurement": "IC50", "setting": "MAO-A [4]", "value": 3300, "unit": "nM"}, {"measurement": "Time to peak activity t", "setting": "whole brain AChE; AChE inhibition", "value": "30 to 90", "unit": "min"}, {"measurement": "Time to return to 50% of peak t", "setting": "whole brain AChE; AChE inhibition", "value": 120, "unit": "min"}, {"measurement": "ED50", "setting": "whole brain AChE", "value": 53.8, "unit": "µmol/kg"}, {"measurement": "MAO-A Inhibition Ex vivo ED50", "setting": "MAO-A [5]", "value": 75, "unit": "µmol/kg"}, {"measurement": "IC50", "setting": "[6]", "value": 30000, "unit": "nM"}]}
{"smiles": "C#CCNCCc1cccc(OC(=O)N(C)CCC)c1", "note": "[Compound 14]", "values": [{"measurement": "IC50", "setting": "MAO-B [1]", "value": 300, "unit": "nM"}, {"measurement": "MAO-B Inhibition Ex vivo ED50", "setting": "MAO-B [3]", "value": 0.6, "unit": "µmol/kg"}, {"measurement": "IC50", "setting": "MAO-A [4]; [7]", "value": 1800, "unit": "nM"}, {"measurement": "Time to peak activity t", "setting": "whole brain AChE; AChE inhibition", "value": 30, "unit": "min"}, {"measurement": "ED50", "setting": "whole brain AChE", "value": 100, "unit": "µmol/kg"}, {"measurement": "MAO-A Inhibition Ex vivo ED50", "setting": "MAO-A [5]", "value": 4.5, "unit": "µmol/kg"}, {"measurement": "IC50", "setting": "[6]", "value": 12500, "unit": "nM"}]}
{"smiles": "C#CCN(C)CCc1cccc(OC(=O)N(C)CC)c1", "note": "[Compound 15]", "values": [{"measurement": "IC50", "setting": "MAO-B [1]", "value": 1000, "unit": "nM"}, {"measurement": "selectivity ratio", "setting": "[2]", "value": 8.6}, {"measurement": "LD50 at 6 h", "setting": "[2]", "value": 1250, "unit": "µmol/kg"}, {"measurement": "MAO-B Inhibition Ex vivo ED50", "setting": "MAO-B [3]", "value": 35, "unit": "µmol/kg"}, {"measurement": "IC50", "setting": "MAO-A [4]", "value": 1000, "unit": "nM"}, {"measurement": "Time to peak activity t", "setting": "whole brain AChE; AChE inhibition", "value": 30, "unit": "min"}, {"measurement": "ED50", "setting": "whole brain AChE", "value": 145, "unit": "µmol/kg"}, {"measurement": "MAO-A Inhibition Ex vivo ED50", "setting": "MAO-A [5]", "value": 35, "unit": "µmol/kg"}, {"measurement": "IC50", "setting": "[6]", "value": 67200, "unit": "nM"}]}
{"smiles": "C#CCN(C)C(C)Cc1cccc(OC(=O)N(C)CC)c1", "note": "(stereo not shown) [Compound 21]", "values": [{"measurement": "IC50", "setting": "MAO-B [1]", "value": 200, "unit": "nM"}, {"measurement": "IC50", "setting": "MAO-A [4]; [7]", "value": 120, "unit": "nM"}, {"measurement": "IC50", "setting": "[6]", "value": 230000, "unit": "nM"}]}
